# The source made the active and inactive calls. No cut-off for these calls is given here.
# Tests used:
# [1] = system: Candida albicans; experiment: Synergistic antifungal activity against FLC-sensitive Candida albicans SC5314 measured after 24 hrs in presence of fluconazole by microdilution method; assay type: functional
# [2] = system: Candida albicans; experiment: In vivo antifungal activity against FLC-resistant Candida albicans ATCC 14053 infected in Balb/c mouse assessed as reduction in lung fungal load at 15 mg/kg, ig measured after 6 days; assay type: functional, organism-based; settings: time 6.0 day
# [3] = system: Candida albicans; experiment: Antifungal activity against clinical FLC-resistant Candida albicans 3511 measured after 24 hrs by microdilution method; assay type: functional
# [4] = system: Candida albicans; experiment: Antifungal activity against clinical FLC-resistant Candida albicans 808 measured after 24 hrs by microdilution method; assay type: functional
# [5] = Cytotoxicity against human 16-HBE cells assessed as cell survival at 90 ug/ml measured after 24 hrs by MTS assay relative to control; assay type: toxicity, cell-based; settings: 16-HBE cells (16HBE14o-), at 90 µg/mL, read-out: Survival
# [6] = system: Candida albicans; experiment: Synergistic antifungal activity against clinical FLC-resistant Candida albicans 4574 assessed as fractional inhibitory concentration index measured after 24 hrs by microdilution method; assay type: functional
# [7] = Toxicity in Balb/c mouse assessed as weight loss at 7.5 to 15 mg/kg, ig measured daily for 6 days in presence of fluconazole; assay type: organism-based; settings: in vivo, po, 144 h, dose 7.5-15 mg/kg, time 6 day
# [8] = system: Candida albicans; experiment: Synergistic antifungal activity against FLC-resistant Candida albicans ATCC 14053 assessed as inhibition of rhodamine 6G efflux incubated for 4 hrs under shaking condition in presence of fluconazole by Rhodamine 6G staining based fluorescence assay; assay type: functional, organism-based
# [9] = system: Candida albicans; experiment: Synergistic antifungal activity against clinical FLC-resistant Candida albicans 3511 measured after 24 hrs by microdilution method; assay type: functional
# [10] = system: Candida albicans; experiment: Synergistic antifungal activity against FLC-resistant Candida albicans ATCC 14053 measured over 48 hrs in presence of fluconazole by time-killing assay; assay type: functional, organism-based
# [11] = Toxicity in Balb/c mouse infected with FLC-resistant Candida albicans ATCC 14053 assessed as weight loss at 7.5 to 15 mg/kg, ig measured daily for 6 days in presence of fluconazole; assay type: organism-based; settings: in vivo, po, 144 h, dose 7.5-15 mg/kg, time 6 day
# [12] = system: Candida albicans; experiment: Synergistic antifungal activity against FLC-resistant Candida albicans ATCC 14053 assessed as inhibition of hyphal formation by measuring down regulation of EFG1 gene expression at 1 ug/ml measured after 16 to 18 hrs in presence of fluconazole by qRT-PCR analysis; assay type: functional, organism-based; settings: dose 1.0 µg/ml, time 16-18 hrs
# [13] = system: Candida albicans; experiment: In vivo antifungal activity against FLC-resistant Candida albicans ATCC 14053 infected in Balb/c mouse assessed as reduction in infiltration of inflammatory cells at 7.5 to 15 mg/kg, ig measured after 6 days in presence of fluconazole by H and E staining based histopathological analysis; assay type: functional, organism-based; settings: dose 7.5-15 mg/kg, time 6.0 day
# [14] = system: Candida albicans; experiment: Synergistic antifungal activity against clinical FLC-resistant Candida albicans 381 measured after 24 hrs by microdilution method; assay type: functional
# [15] = system: Candida albicans; experiment: Synergistic antifungal activity against FLC-resistant Candida albicans ATCC 10231 measured after 24 hrs by microdilution method; assay type: functional
# [16] = system: Candida albicans; experiment: In vivo antifungal activity against FLC-resistant Candida albicans ATCC 14053 infected in Balb/c mouse assessed as removal of colonized fungi at 15 mg/kg, ig measured after 6 days by H and E staining based histopathological analysis; assay type: functional, organism-based; settings: time 6.0 day
# [17] = system: Candida albicans; experiment: Synergistic antifungal activity against clinical FLC-resistant Candida albicans 3816 measured after 24 hrs by microdilution method; assay type: functional
# [18] = system: Candida albicans; experiment: Antifungal activity against FLC-resistant Candida albicans ATCC 10231 measured after 24 hrs by microdilution method; assay type: functional
# [19] = system: Candida albicans; experiment: Synergistic antifungal activity against Clinical FLC-resistant Candida albicans 23 assessed as fractional inhibitory concentration index measured after 24 hrs in presence of fluconazole by microdilution method; assay type: functional
# [20] = system: Candida albicans; experiment: In vivo antifungal activity against FLC-resistant Candida albicans ATCC 14053 infected in Balb/c mouse assessed as reduction in severity of lesions in lungs at 15 mg/kg, ig measured after 6 days by H and E staining based histopathological analysis; assay type: functional, organism-based; settings: time 6.0 day
# [21] = system: Candida albicans; experiment: In vivo antifungal activity against FLC-resistant Candida albicans ATCC 14053 infected in Balb/c mouse assessed as reduction in internal fungal growth at 7.5 to 15 mg/kg, ig measured after 6 days in presence of fluconazole by H and E staining based histopathological analysis; assay type: functional, organism-based; settings: dose 7.5-15 mg/kg, time 6.0 day
# [22] = system: Candida albicans; experiment: Antifungal activity against clinical FLC-resistant Candida albicans 381 measured after 24 hrs by microdilution method; assay type: functional
# [23] = system: Candida albicans; experiment: Synergistic antifungal activity against clinical FLC-resistant Candida albicans 550 measured after 24 hrs by microdilution method; assay type: functional
compound,measurement,setting,value
CN1CCN(c2nc3ccccc3cc2/C=C/C(=O)c2ccc(N3CCN(Cc4ccc(C(F)(F)F)cc4)CC3)cc2)CC1,MIC80,[1],0.99 µg/mL
same,Activity,[2],inactive
same,MIC80,[3],> 40 µg/mL
same,MIC80,[4],> 40 µg/mL
same,"viability at 24 h, 90 ug/ml",[5],76.5%
same,fractional inhibitory concentration index (FICI),[6],0.02
same,Activity,[7],Non-Toxic
same,inhibition,[8],Active
same,MIC80,[9],5.89 µg/mL
same,Activity,[10],Dose-Dependent Effect
same,Activity,[11],Non-Toxic
same,inhibition,[12],Active
same,Activity,[13],Active
same,MIC80,[14],1.35 µg/mL
same,MIC80,[15],5.58 µg/mL
same,Activity,[16],inactive
same,MIC80,[17],1.2 µg/mL
same,MIC80,[18],> 40 µg/mL
same,fractional inhibitory concentration index (FICI),[19],0.03
same,Activity,[20],inactive
same,Activity,[21],Active
same,MIC80,[22],> 40 µg/mL
same,MIC80,[23],5.9 µg/mL
